Legend:
[1] = In vivo pharmacokinetic study in mice; details: mouse, plasma
Text: In Vivo Pharmacokinetic Study of Compounds Disclosed Herein in Mice SPF-grade mice (SPF (Beijing) Biotechnology Co., Ltd.) were fasted overnight (without water deprivation) after adaptive feeding, and then received the compound of the present disclosure by intragastrical administration and bolus injection at tail vein. After administration, plasma of mice was collected at specific time points, and the concentration of the compound in the plasma was detected by LC-MS/MS (AB SCIEX Qtrap4500). The PK parameters of the compounds were statistically analyzed and calculated (WinNonlin V5.2, Pharsight) to show the pharmacokinetic properties of the compounds in mice.

ROCK2 kinase = molecular target: T1, ROCK2 kinase (Homo sapiens, UniProt O75116); assay: In vitro evaluation of ROCK2 kinase activity (HTRF KinEASE-STK time-resolved fluorometric assay); format: biochemical
T1 construct: purchased Invitrogen PV3759
Summary of the method: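 ROCK2 (0.4 ng/μL final) was preincubated with compound (1% DMSO) for 0.5 h at room temperature in kinase buffer with 5 mM MgCl2, 1 mM DTT. Reaction with ATP 6.739 μM and STK-substrate 2-biotin 1 μM ran 2 h at room temperature; HTRF read-out after ~1 h detection.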

ROCK1 kinase = molecular target: T2, ROCK1 kinase (Homo sapiens, UniProt Q13464); assay: In vitro evaluation of ROCK1 kinase selectivity (HTRF KinEASE-STK time-resolved fluorometric assay); format: biochemical
T2 construct: purchased Invitrogen
Summary of the method: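 Recombinant ROCK1 (0.4 ng/μL final) preincubated with compound (1% DMSO) for 0.5 h at room temperature in buffer with 5 mM MgCl2 and 1 mM DTT. Reaction started with ATP and biotinylated STK-substrate 2 (3.53 μM and 1 μM final), run 2 h at room temperature. HTRF detection with STK antibody-Cryptate/streptavidin-XL665 after about 1 h.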

[2] = In vitro cytotoxicity assay in HepG2 cells, CCK-8 method; details: human
Protocol: In vitro cytotoxicity assay for the compounds disclosed herein was performed in HepG2 cells using the CCK-8 method. HepG2 cells (Beina Bio) in the logarithmic growth phase were collected, the concentration of cell suspension was adjusted, and then the cells were plated on a 96-well cell culture plate at 50,000 cells/well. The cells were then incubated overnight in a cell incubator (5%, 37° C.), and after 80-90% cell confluence was achieved, test compound at each concentration gradient or vehicle (DMSO) was added after medium change. The resulting mixture was incubated in the cell incubator (5%, 37° C.) for 48 h. After the treatment, the medium in the plate was discarded. The plate was washed twice with PBS, added with CCK-8 working solution (Beyotime) at 100 μL per well, and then incubated at 37° C. for 1.5 h in the dark. Absorbance at OD450 nm was measured for each well on a microplate reader, and CC50 value of each compound was analyzed and calculated.

T2 sequence (Q13464 whole entry): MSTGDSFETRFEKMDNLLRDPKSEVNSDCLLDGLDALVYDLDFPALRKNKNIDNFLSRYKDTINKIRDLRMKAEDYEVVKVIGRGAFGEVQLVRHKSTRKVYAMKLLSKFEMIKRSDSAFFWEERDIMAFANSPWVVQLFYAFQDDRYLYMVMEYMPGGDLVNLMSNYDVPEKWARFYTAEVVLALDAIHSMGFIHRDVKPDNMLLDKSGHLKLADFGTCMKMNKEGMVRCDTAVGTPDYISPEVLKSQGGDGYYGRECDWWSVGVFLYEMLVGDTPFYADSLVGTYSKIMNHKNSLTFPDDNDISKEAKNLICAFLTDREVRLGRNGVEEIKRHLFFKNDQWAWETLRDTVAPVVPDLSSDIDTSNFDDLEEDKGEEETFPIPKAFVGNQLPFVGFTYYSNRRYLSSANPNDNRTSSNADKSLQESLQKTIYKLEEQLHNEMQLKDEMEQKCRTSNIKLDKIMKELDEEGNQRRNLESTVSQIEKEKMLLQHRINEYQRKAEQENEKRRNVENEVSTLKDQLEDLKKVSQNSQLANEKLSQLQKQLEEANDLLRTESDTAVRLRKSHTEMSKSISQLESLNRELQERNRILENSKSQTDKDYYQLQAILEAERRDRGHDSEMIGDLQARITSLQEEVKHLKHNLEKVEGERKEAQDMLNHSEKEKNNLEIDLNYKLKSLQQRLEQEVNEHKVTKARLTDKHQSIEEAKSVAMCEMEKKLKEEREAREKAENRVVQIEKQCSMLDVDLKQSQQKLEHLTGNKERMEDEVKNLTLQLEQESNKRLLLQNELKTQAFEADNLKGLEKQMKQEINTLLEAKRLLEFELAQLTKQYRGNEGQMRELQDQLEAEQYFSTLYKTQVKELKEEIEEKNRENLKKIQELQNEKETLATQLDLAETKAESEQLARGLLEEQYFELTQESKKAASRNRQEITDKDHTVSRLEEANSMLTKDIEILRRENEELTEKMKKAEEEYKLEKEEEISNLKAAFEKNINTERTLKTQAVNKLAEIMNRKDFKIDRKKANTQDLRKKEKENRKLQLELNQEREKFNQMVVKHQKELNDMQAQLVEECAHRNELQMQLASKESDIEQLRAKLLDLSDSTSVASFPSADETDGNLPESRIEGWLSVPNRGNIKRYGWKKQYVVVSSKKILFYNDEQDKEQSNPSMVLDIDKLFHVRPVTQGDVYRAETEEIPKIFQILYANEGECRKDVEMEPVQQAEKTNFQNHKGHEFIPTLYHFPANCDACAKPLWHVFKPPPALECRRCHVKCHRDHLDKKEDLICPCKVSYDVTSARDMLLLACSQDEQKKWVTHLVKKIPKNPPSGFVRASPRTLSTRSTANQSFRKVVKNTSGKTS
T1 sequence (O75116 whole entry): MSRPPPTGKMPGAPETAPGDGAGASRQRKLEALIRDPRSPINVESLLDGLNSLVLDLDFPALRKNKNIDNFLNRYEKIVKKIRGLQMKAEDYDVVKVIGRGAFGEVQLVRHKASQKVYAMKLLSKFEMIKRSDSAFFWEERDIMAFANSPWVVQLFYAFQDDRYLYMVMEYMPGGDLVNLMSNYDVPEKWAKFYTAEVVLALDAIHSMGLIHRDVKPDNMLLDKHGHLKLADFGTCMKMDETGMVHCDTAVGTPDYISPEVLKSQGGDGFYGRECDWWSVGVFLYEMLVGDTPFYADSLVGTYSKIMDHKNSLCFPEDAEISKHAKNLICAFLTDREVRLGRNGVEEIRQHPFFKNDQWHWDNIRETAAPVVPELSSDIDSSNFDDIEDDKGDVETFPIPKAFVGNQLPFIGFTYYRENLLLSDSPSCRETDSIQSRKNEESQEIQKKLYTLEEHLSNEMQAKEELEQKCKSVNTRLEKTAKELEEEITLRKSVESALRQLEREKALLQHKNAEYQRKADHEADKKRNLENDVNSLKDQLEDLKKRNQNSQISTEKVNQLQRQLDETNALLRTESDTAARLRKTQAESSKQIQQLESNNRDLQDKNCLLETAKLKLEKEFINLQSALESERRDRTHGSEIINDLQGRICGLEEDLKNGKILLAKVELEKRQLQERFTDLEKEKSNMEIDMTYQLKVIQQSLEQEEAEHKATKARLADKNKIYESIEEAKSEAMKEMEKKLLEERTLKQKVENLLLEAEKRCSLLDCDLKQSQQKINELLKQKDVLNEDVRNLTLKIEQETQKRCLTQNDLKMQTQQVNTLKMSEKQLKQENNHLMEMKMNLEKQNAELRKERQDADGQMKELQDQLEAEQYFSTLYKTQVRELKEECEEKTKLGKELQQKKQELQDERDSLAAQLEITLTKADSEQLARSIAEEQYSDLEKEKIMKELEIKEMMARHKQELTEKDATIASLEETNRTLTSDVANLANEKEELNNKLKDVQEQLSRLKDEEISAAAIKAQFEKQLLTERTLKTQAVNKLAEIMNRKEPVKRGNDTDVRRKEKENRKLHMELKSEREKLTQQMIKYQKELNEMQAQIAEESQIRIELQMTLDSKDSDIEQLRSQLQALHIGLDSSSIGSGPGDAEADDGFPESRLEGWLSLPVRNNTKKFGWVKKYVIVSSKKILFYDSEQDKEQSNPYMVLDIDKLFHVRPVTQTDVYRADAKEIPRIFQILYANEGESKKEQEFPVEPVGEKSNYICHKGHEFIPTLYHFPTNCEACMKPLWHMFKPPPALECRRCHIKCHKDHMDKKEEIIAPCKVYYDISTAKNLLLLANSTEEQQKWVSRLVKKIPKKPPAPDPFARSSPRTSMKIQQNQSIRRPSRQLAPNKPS

| Structure (SMILES) | IC50 (ROCK2 kinase) [nM] | IC50 (ROCK1 kinase) [nM] | CC50 at 48 h [2] [nM] | also measured |
| --- | --- | --- | --- | --- |
| COc1cc(F)cc(CNC(=O)N2CCc3cc(-c4cn[nH]c4)ccc3C2)c1 [Compound T201, N-(3-fluoro-5-methoxybenzyl)-6-(1H-pyrazol-4-yl)-3,4-dihydroisoquinoline-2(1H)-carboxamide] | 50 to 500 | 500 to 5000 | – | bioavailability ([1]; 3 mg/kg Po vs Iv): 42.4%; AUC(0-t) ([1]; Iv, 3 mg/kg): 413 ng·h/mL; Cmax ([1]; Iv, 3 mg/kg): 704 ng/mL; AUC(0-t) ([1]; Po, 3 mg/kg): 175 ng·h/mL; Cmax ([1]; Po, 3 mg/kg): 95.5 ng/mL |
| COc1cc(F)cc(C(=O)NC(=O)c2cn(C)c3cc(-c4cn[nH]c4)ccc23)c1 [Compound T203, 1-methyl-6-(1H-pyrazol-4-yl)-1H-indole-3-carboxylic acid-3-fluoro-5-methoxy-benzoylamide] | – | – | – | CC50 (HepG2 cells): > 50000 nM |
| O=C(NC1CCCC1)c1cccc([C@H](CO)NC(=O)N2CCc3cc(-c4cn[nH]c4)c(F)cc32)c1 [Compound T356-R, (R)-N-(1-(3-(cyclopentylcarbamoyl)phenyl)-2-hydroxyethyl)-6-fluoro-5-(1H-pyrazol-4-yl)indoline-1-carboxamide] | 50 to 500 | 50 to 500 | > 200000 | – |
| COc1cccc(CNC(=O)c2ncn3cc(-c4cn[nH]c4)ccc23)c1 [Compound T361, N-(3-methoxybenzyl)-6-(1H-pyrazol-4-yl)imidazo[1,5-a]pyridine-1-carboxamide] | ≤ 50 | 50 to 500 | > 100000 | – |
| O=C(NCc1cccc(OCC2CC2)c1)N1CCc2cc(-c3c[nH]nc3F)c(F)cc21 [Compound T380, N-(3-(cyclopropylmethoxy)benzyl)-6-fluoro-5-(3-fluoro-1H-pyrazol-4-yl)indoline-1-carboxamide] | ≤ 50 | 50 to 500 | 35300 | – |
| COc1cc(CNC(=O)N2CCc3cc(-c4cn[nH]c4F)c(F)cc32)ccc1F [Compound T384, 6-fluoro-5-(5-fluoro-1H-pyrazol-4-yl)-N-(4-fluoro-3-methoxybenzyl)indoline-1-carboxamide] | ≤ 50 | ≤ 50 | > 100000 | – |
| COc1cc(F)cc(CNC(=O)N2CCc3cc(-c4c[nH]nc4N)c(F)cc32)c1 [Compound T385, 5-(3-amino-1H-pyrazol-4-yl)-6-fluoro-N-(3-fluoro-5-methoxybenzyl)indoline-1-carboxamide] | ≤ 50 | 50 to 500 | > 100000 | – |
| O=C(NCc1cc(F)cc(F)c1)N1CCc2cc(-c3cn[nH]c3F)c(F)cc21 [Compound T387, N-(3,5-difluorobenzyl)-6-fluoro-5-(5-fluoro-1H-pyrazol-4-yl)indoline-1-carboxamide] | ≤ 50 | ≤ 50 | > 100000 | bioavailability ([1]; 1 mg/kg Po vs Iv): 82.8%; AUC(0-t) ([1]; Iv, 1 mg/kg): 753 ng·h/mL; Cmax ([1]; Iv, 1 mg/kg): 492 ng/mL; AUC(0-t) ([1]; Po, 1 mg/kg): 623 ng·h/mL; Cmax ([1]; Po, 1 mg/kg): 188 ng/mL |
| CCOc1cc(F)cc([C@@H](CO)NC(=O)N2CCc3cc(-c4cn[nH]c4)c(F)cc32)c1 [Compound T390, (S′)-N-(1-(3-ethoxy-5-fluorophenyl)-2-hydroxyethyl)-6-fluoro-5-(1N-pyrazol-4-yl)indoline-1-carboxamide] | ≤ 50 | 50 to 500 | – | – |
| COc1cccc(CNC(=O)c2ncn3cc(-c4cn[nH]c4F)ccc23)c1 [Compound T391, 6-(5-fluoro-1H-pyrazol-4-yl)-N-(3-methoxybenzyl)imidazo (1,5-a)pyridine-1-carboxamide] | ≤ 50 | ≤ 50 | > 100000 | – |

Further lines, with some results ahead:

| IC50 (ROCK2 kinase) [nM] | IC50 (ROCK1 kinase) [nM] | Structure (SMILES) | CC50 at 48 h [2] [nM] | also measured |
| --- | --- | --- | --- | --- |
| ≤ 50 | ≤ 50 | COc1cc(F)cc(CNC(=O)N2CCc3cc(-c4cn[nH]c4)ccc32)c1 [Compound T202, N-(3-fluoro-5-methoxybenzyl)-5-(1H-pyrazol-4-yl)indoline-1-carboxamide] | > 50000 | bioavailability ([1]; 3 mg/kg Po vs Iv): 90.3%; AUC(0-t) ([1]; Iv, 3 mg/kg): 1740 ng·h/mL; Cmax ([1]; Iv, 3 mg/kg): 2340 ng/mL; AUC(0-t) ([1]; Po, 3 mg/kg): 1570 ng·h/mL; Cmax ([1]; Po, 3 mg/kg): 807 ng/mL |
| ≤ 50 | 50 to 500 | COc1cc(F)cc(CNC(=O)N2CCCc3cc(-c4cn[nH]c4)ccc32)c1 [Compound T204, N-(3-fluoro-5-methoxybenzyl)-6-(1H-pyrazol-4-yl)-3,4-dihydroquinoline-1(2H)-carboxamide] | > 50000 | – |
| ≤ 50 | 50 to 500 | COc1cc(F)cc(CNC(=O)N2CCOc3cc(-c4cn[nH]c4)ccc32)c1 [Compound T205, N-(3-fluoro-5-methoxybenzyl)-7-(1H-pyrazol-4-yl)-2H-benzo[b][1,4]oxazine-4(3H)-carboxamide] | > 50000 | – |
| ≤ 50 | ≤ 50 | COc1cc(F)cc(CNC(=O)c2ncn3cc(-c4cn[nH]c4)ccc23)c1 [Compound T238, N-(3-fluoro-5-methoxybenzyl)-6-(1H-pyrazol-4-yl)imidazo[1,5-a]pyridine-1-carboxamide] | – | bioavailability ([1]; 3.4 mg/kg Po vs Iv): 84.6%; AUC(0-t) ([1]; Iv, 3.4 mg/kg): 10500 ng·h/mL; Cmax ([1]; Iv, 3.4 mg/kg): 4940 ng/mL; AUC(0-t) ([1]; Po, 3.4 mg/kg): 8880 ng·h/mL; Cmax ([1]; Po, 3.4 mg/kg): 2130 ng/mL |
| ≤ 50 | 50 to 500 | COc1cccc(CNC(=O)N2CCc3cc(-c4c[nH]nc4N)c(F)cc32)c1 [Compound T345, 5-(3-amino-1H-pyrazol-4-yl)-6-fluoro-N-(3-methoxybenzyl)indoline-1-carboxamide] | 40800 | bioavailability ([1]; 1 mg/kg Po vs Iv): 49.1%; AUC(0-t) ([1]; Iv, 1 mg/kg): 1260 ng·h/mL; Cmax ([1]; Iv, 1 mg/kg): 977 ng/mL; AUC(0-t) ([1]; Po, 1 mg/kg): 618 ng·h/mL; Cmax ([1]; Po, 1 mg/kg): 322 ng/mL |
| ≤ 50 | ≤ 50 | COc1cccc([C@@H](CO)NC(=O)N2CCc3cc(-c4cn[nH]c4)c(F)cc32)c1 [Compound T346] | 45000 | – |
| ≤ 50 | ≤ 50 | COc1cc(F)cc(CNC(=O)c2ncn3cc(-c4cn[nH]c4F)ccc23)c1 [Compound T355, 6-(5-fluoro-1H-pyrazol-4-yl)-N-(3-fluoro-5-methoxybenzyl)imidazo[1,5-a]pyridine-1-carboxamide] | > 100000 | – |
| ≤ 50 | ≤ 50 | COc1cccc(CNC(=O)N2CCc3cc(-c4c[nH]nc4F)c(F)cc32)c1 [Compound T357, 6-fluoro-5-(3-fluoro-1H-pyrazol-4-yl)-N-(3-methoxybenzyl)indoline-1-carboxamide] | 96000 | bioavailability ([1]; 1 mg/kg Po vs Iv): 71.1%; AUC(0-t) ([1]; Iv, 1 mg/kg): 1090 ng·h/mL; Cmax ([1]; Iv, 1 mg/kg): 811 ng/mL; AUC(0-t) ([1]; Po, 1 mg/kg): 775 ng·h/mL; Cmax ([1]; Po, 1 mg/kg): 352 ng/mL |

From patent US20230050653A1, “ROCK INHIBITOR AND PREPARATION METHOD THEREFOR AND USE THEREOF” (WUHAN LL SCIENCE AND TECHNOLOGY DEVELOPMENT CO., LTD., priority 2019, published 2023)
